Source: patent publication US8124381B2, “Process and materials for production of glucosamine and N-acetylglucosamine” (Arkion Life Sciences, priority 2002, dated 2012)
Entries after “also recorded” stand apart in the source; their conditions may differ.

Legend:
[1] = target: T1, E. coli glucosamine synthase GlmS*54 (Escherichia coli, UniProt P17169, A39T/G472S/R250C); experiment: Effects of phosphorylated sugars on glucosamine synthase; type: biochemical
T1 construct: made in house; host or cells: E. coli 7107-18 (printed '7017-18'; T7-glmS*54 integrated at galK) and strains derived from it; crude extract
Description: Glucosamine synthetase activity was examined in the presence of various phosphorylated sugars. Crude enzyme extracts was prepared from cells of 7017-18 grown in shake flasks for 24 hours with lactose induction.

[2] = target: phosphoglucoisomerase (Pgi) (Escherichia coli, UniProt P0A6T1); experiment: Effect of phosphorylated amino sugars on phosphoglucoisomerase activity; type: biochemical; conditions: in vitro, FIG. 15
Excerpt: Therefore, effects of glucosamine-6-P and N-acetylglucosamine-6-P on several of the enzymes were examined.

[3] = target: glucose-6-P dehydrogenase (zwf) (Escherichia coli, UniProt P0AC53, A9V); experiment: Effect of phosphorylated amino sugars on glucose-6-P dehydrogenase; type: biochemical; conditions: in vitro, FIG. 16
[4] = target: glucosamine N-acetyltransferase (Saccharomyces cerevisiae, UniProt P43577); experiment: Product inhibition of glucosamine N-acetyltransferase; type: biochemical
E. coli 7107-18 = experiment: Effects of N-acetyl glucosamine on E. coli 7107-18; type: cell-based; conditions: 62 g/L N-acetyl glucosamine in M9A-glucose (40 g/L), also medium pre-incubated more than eight hours
Excerpt: Cells were inoculated into […]-glucose (40 g/L) containing 62 g/L N-acetyl glucosamine.

[5] = Stability of NAG in fermentation at 37 C and pH 7.0; type: physicochemical; conditions: after cessation of glucose feed at 37 C and pH 7.0
Excerpt: The use of lower temperature and pH were key factors in stabilizing the GLcN fermentation, primarily due to the labile nature of GLcN at higher pH and temperature. However, it was shown that NAG was stable at neutral pH. Fermentation for NAG production was operated in the pH range of 6.7 to 7.0 throughout the program.

[6] = Solubility of N-acetylglucosamine in water miscible solvents; type: physicochemical; conditions: IPA, ethanol, methanol, acetone, tetrahydrofuran, dimethylsulfoxide, dimethylformamide, dioxane, acetonitrile
Excerpt: Recovering N-acetylglucosamine-containing solids from the fermentation broth can be enhanced by contacting N-acetylglucosamine in the broth with a water miscible solvent. […] Therefore, by introduction of such a water miscible solvent into the broth, the N-acetylglucosamine will become less soluble and will further recovery.

[7] = Heat stability of purified solid N-acetylglucosamine at 105 C; type: physicochemical; conditions: 98% pure sample, 2 hours at 105 C
[8] = Degradation in hydrochloric acid at 90-100 C based on ammonia formation; type: physicochemical; conditions: 30% hydrochloric acid, 90 C, 3 hours
Description: Glucosamine degradation was examined at 90° C. and 100° C. using 5% and 10% glucosamine hydrochloride (w/w) with 12% and 20% hydrochloric acid by weight. Samples were incubated from 1-24 hours and assayed enzymatically for ammonia using glutamate dehydrogenase. […] Glucosamine degradation is based on ammonia formation.
N-acetylglucosamine was hydrolyzed to glucosamine at 90° C. using the hybridization oven. The reaction was carried out inside a screw capped glass tube. The 30% hydrochloric acid (30 g) was preincubated at 90° C. for 1 hour. After this 10 g solid N-acetylglucosamine was added, quickly dissolved, and a To sample taken. Samples were taken at 30-minute intervals over the next three hours. […] Samples were analyzed for ammonia enzymatically.

[9] = Stability of N-acetylglucosamine in M9A medium
Description: The stability of N-acetylglucosamine was tested in an experiment similar to the glucosamine degradation studies. The stability of 80 and 40 g l^−1 N-acetyl glucosamine at pH 5.5 and 7.0 was monitored in medium M9A-without glucose over a period of two days.

[10] = substrate: O=P(O)(O)OC[C@H]1OC(O)(CO)[C@@H](O)[C@@H]1O; experiment: purified protein, by the assay type
[11] = substrate: NC(=O)CC[C@H](N)C(=O)O; experiment: GlmS (glucosamine synthase) inhibition and Michaelis-Menten kinetics, crude extract of strain 2123-12; type: biochemical, Escherichia coli; conditions: other: crude extracts, nonlinear regression
Description: (§1) Different glucosamine synthetase enzymes, including native B. subtillus GlmS, native E. coli GlmS and mutant E. coli GlmS, were studied in vitro. Cells of various E. coli strains were grown in the M9A medium, harvested, and frozen. Cells extracts were prepared and the glucosamine synthetases were characterized and compared.
(§2) Enzyme sensitivities to the reaction product glucosamine-6-P were examined. […] This figure highlights the dramatic difference between the wild type GlmS and these mutant GlmS strains.
(§3) The Mutants 2123-54 and the B. subtilis enzyme have higher Ki values (Table 6). Measured Ki constants for several of these mutants are 4 to 8 times the value for the native enzyme in strain 2123-12. From shake flask studies it is apparent that decreased sensitivity to glucosamine-6-P allows higher glucosamine levels to accumulate.
(§4) These values are slightly higher than those obtained with the native enzyme.

[12] = substrate: O=P(O)(O)OC[C@H]1OC(O)(CO)[C@@H](O)[C@@H]1O; experiment: as above; type: biochemical, Escherichia coli; conditions: other: crude extracts, nonlinear regression
Description: as §1, §2, §3, §4

[13] = substrate: NC(=O)CC[C@H](N)C(=O)O; experiment: GlmS inhibition and Michaelis-Menten kinetics, crude extract of strain 2123-54; type: biochemical, Escherichia coli; conditions: other: crude extracts
Description: as §1, §2, §3, §4

[14] = substrate: O=P(O)(O)OC[C@H]1OC(O)(CO)[C@@H](O)[C@@H]1O; experiment: as above; type: biochemical, Escherichia coli; conditions: other: crude extracts
Description: as §1, §2, §3, §4

[15] = system: glucosamine synthetase (GlmS); experiment: Thermal stability of GlmS enzymes (denaturation at 50 C); type: biochemical, E. coli; conditions: crude extracts incubated at 50 C, sampled over 90 minutes, assayed at 25 C
Description: Denaturation at 50° C. was used to measure possible differences in thermal stability of different GlmS enzymes. Crude extracts were incubated at 50° C. and sampled over a 90-minute period. The samples were assayed for glucosamine synthetase activity at 25° C. with saturating levels of all substrates.

[16] = system: glucosamine synthetase (GlmS); experiment: Sensitivity of GlmS enzymes to inhibition by glucosamine-6-P (initial velocity, Ki); type: biochemical, E. coli; B. subtilis; conditions: 0-30 mM glucosamine-6-P
Description: as §1
Enzyme sensitivities to the reaction product glucosamine-6-P were examined.

[17] = system: glucosamine synthetase (GlmS); type: biochemical, E. coli; B. subtilis; conditions: crude extracts

phosphoglucoisomerase (Pgi), sequence (P0A6T1 whole entry): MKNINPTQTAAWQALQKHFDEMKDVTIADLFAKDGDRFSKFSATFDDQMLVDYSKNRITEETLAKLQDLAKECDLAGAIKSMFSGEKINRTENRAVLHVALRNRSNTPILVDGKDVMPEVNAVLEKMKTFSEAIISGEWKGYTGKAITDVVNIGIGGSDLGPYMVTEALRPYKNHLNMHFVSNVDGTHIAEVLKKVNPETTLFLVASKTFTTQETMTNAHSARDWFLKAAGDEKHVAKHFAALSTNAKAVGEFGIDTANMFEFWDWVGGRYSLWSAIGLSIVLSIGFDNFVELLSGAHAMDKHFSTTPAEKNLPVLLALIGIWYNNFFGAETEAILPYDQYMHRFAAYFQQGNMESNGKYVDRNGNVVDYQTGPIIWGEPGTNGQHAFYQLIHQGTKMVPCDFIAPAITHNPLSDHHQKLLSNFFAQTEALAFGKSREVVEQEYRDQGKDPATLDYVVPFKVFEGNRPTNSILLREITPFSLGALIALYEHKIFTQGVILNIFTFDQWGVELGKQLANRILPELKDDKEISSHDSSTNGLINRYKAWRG
glucose-6-P dehydrogenase (zwf), sequence (P0AC53 whole entry A9V): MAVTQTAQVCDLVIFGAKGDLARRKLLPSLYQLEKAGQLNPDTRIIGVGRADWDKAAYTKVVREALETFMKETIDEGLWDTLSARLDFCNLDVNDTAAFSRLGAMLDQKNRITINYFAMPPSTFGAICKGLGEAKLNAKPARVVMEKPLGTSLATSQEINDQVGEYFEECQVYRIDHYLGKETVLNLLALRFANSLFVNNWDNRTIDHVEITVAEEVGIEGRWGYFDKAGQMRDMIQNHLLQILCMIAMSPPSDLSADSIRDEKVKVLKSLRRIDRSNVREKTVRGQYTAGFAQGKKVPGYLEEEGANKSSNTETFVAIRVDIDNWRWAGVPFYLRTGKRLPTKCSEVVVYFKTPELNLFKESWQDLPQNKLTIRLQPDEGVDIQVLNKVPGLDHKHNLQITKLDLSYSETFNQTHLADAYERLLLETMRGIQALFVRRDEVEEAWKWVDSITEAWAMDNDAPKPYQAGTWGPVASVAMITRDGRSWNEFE
glucosamine N-acetyltransferase, sequence (P43577 whole entry): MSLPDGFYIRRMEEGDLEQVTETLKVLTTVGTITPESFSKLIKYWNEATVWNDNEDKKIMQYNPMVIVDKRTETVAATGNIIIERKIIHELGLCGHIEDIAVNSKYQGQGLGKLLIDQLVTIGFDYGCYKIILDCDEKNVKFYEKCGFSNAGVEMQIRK

CC(=O)N[C@H]1C(O)O[C@H](COP(=O)(O)O)[C@@H](O)[C@@H]1O (stereo partly shown) [N-acetylglucosamine-6-P, N-acetylglucosamine-6-phosphate]
activity at 10000 µM [1]: 100%
activity at 20000 µM [1]: 100%
inhibition of phosphoglucoisomerase (Pgi) [2]: significantly less so; also recorded: does not significantly inhibit
inhibition of glucose-6-P dehydrogenase (zwf) [3]: does not significantly inhibit
product inhibition of glucosamine N-acetyltransferase [4]: did not show any significant product inhibition

CC(=O)N[C@@H](C=O)[C@@H](O)[C@H](O)[C@H](O)CO [N-acetylglucosamine, 2-acetamido-2-deoxy-D-glucose]
growth inhibition (E. coli 7107-18): No significant growth inhibition
time NAG was stable [5]: at least 50 hours
solubility in water miscible solvents [6]: very insoluble
color change on heating [7]: turned light brown
weight loss on heating [7]: 4.7%
degradation based on ammonia levels [8]: around 3.5%
drop in pH during incubation [9]: no significant drop in pH
degradation of N-acetyl glucosamine ([9]; 80 and 40 g l-1, pH 5.5 and 7.0, M9A without glucose, two days): No significant degradation
amber color formation ([9]; M9A medium, 48 hours): No such color formation

B1: Bacillus subtilis GlmS, wild type, SEQ ID NO:16 (Bacillus subtilis subsp. subtilis str. 168) (protein)
chain: CGIVGYIGQLDAKEILLKGLEKLEYRGYDSAGIAVANEQGIHVFKEKGRIADLREVVDANVEAKAGIGHTRWATHGEPSYLNAHPHQSALGRFTLVHNGVIENYVQLKQEYLQDVELKSDTDTEVVVQVIEQFVNGGLETEEAFRKTLTLLKGSYAIALFDNDNRETIFVAKNKSPLLVGLGDTFNVVASDAMAMLQVTNEYVELMDKEMVIVTDDQVVIKNLDGDVITRASYIAELDASDIEKGTYPHYMLKETDEQPVVMRKIIQTYQDENGKLSVPGDIAAAVAEADRIYIIGCGTSYHAGLVGKQYIEMWANVPVEVHVASEFSYNMPLLSKKPLFIFLSQSGETADSRAVLVQVKALGHKALTITNVPGSTLSREADYTLLLHAGPEIAVASTKAYTAQIAVLAVLASVAADKNGINIGFDLVKELGIAANAMEALCDQKDEMEMIAREYLTVSRNAFFIGRGLDYFVCVEGALKLKEISYIQAEGFAGGELKHGTIALIEQGTPVFALATQEHVNLSIRGNVKEVAARGANTCIISLKGLDDADDRFVLPEVNPALAPLVSVVPLQLIAYYAALHRGCDVDKPRNLAKSVTVE
Km [10]: 620 µM

B2: E. coli GlmS (glucosamine-6-phosphate synthase), wild type, SEQ ID NO:2 (strain 2123-12) (Escherichia coli K-12) (protein)
chain: CGIVGAIAQRDVAEILLEGLRRLEYRGYDSAGLAVVDAEGHMTRLRRLGKVQMLAQAAEEHPLHGGTGIAHTRWATHGEPSEVNAHPHVSEHIVVVHNGIIENHEPLREELKARGYTFVSETDTEVIAHLVNWELKQGGTLREAVLRAIPQLRGAYGTVIMDSRHPDTLLAARSGSPLVIGLGMGENFIASDQLALLPVTRRFIFLEEGDIAEITRRSVNIFDKTGAEVKRQDIESNLQYDAGDKGIYRHYMQKEIYEQPNAIKNTLTGRISHGQVDLSELGPNADELLSKVEHIQILACGTSYNSGMVSRYWFESLAGIPCDVEIASEFRYRKSAVRRNSLMITLSQSGETADTLAGLRLSKELGYLGSLAICNVPGSSLVRESDLALMTNAGTEIGVASTKAFTTQLTVLLMLVAKLSRLKGLDASIEHDIVHGLQALPSRIEQMLSQDKRIEALAEDFSDKHHALFLGRGDQYPIALEGALKLKEISYIHAEAYAAGELKHGPLALIDADMPVIVVAPNNELLEKLKSNIEEVRARGGQLYVFADQDAGFVSSDNMHIIEMPHVEEVIAPIFYTVPLQLLAYHVALIKGTDVDQPRNLAKSVTVE
notes: made in house; host or cells: E. coli strain 2123-12 (T7-glmS integrated in the chromosome), crude cell extract
Km [11]: 170 µM
Km [12]: 200 µM

B3: E. coli GlmS mutant GlmS*54, SEQ ID NO:6 (Ala39Thr, Arg250Cys, Gly472Ser) (strain 2123-54) (Escherichia coli K-12; A39T/G472S/R250C) (protein)
chain: CGIVGAIAQRDVAEILLEGLRRLEYRGYDSAGLAVVDTEGHMTRLRRLGKVQMLAQAAEEHPLHGGTGIAHTRWATHGEPSEVNAHPHVSEHIVVVHNGIIENHEPLREELKARGYTFVSETDTEVIAHLVNWELKQGGTLREAVLRAIPQLRGAYGTVIMDSRHPDTLLAARSGSPLVIGLGMGENFIASDQLALLPVTRRFIFLEEGDIAEITRRSVNIFDKTGAEVKRQDIESNLQYDAGDKGIYCHYMQKEIYEQPNAIKNTLTGRISHGQVDLSELGPNADELLSKVEHIQILACGTSYNSGMVSRYWFESLAGIPCDVEIASEFRYRKSAVRRNSLMITLSQSGETADTLAGLRLSKELGYLGSLAICNVPGSSLVRESDLALMTNAGTEIGVASTKAFTTQLTVLLMLVAKLSRLKGLDASIEHDIVHGLQALPSRIEQMLSQDKRIEALAEDFSDKHHALFLSRGDQYPIALEGALKLKEISYIHAEAYAAGELKHGPLALIDADMPVIVVAPNNELLEKLKSNIEEVRARGGQLYVFADQDAGFVSSDNMHIIEMPHVEEVIAPIFYTVPLQLLAYHVALIKGTDVDQPRNLAKSVTVE
notes: made in house; host or cells: E. coli strain 2123-54 (lacZ::T7-glmS*54), crude cell extract
Km [13]: 730 µM
Km [14]: 640 µM

B4: WT E. coli GlmS: wild-type E. coli glucosamine-6-phosphate synthase (SEQ ID NO:2), expressed in strain 2123-12 (protein, listed as Escherichia coli)
chain: MCGIVGAIAQRDVAEILLEGLRRLEYRGYDSAGLAVVDAEGHMTRLRRLGKVQMLAQAAEEHPLHGGTGIAHTRWATHGEPSEVNAHPHVSEHIVVVHNGIIENHEPLREELKARGYTFVSETDTEVIAHLVNWELKQGGTLREAVLRAIPQLRGAYGTVIMDSRHPDTLLAARSGSPLVIGLGMGENFIASDQLALLPVTRRFIFLEEGDIAEITRRSVNIFDKTGAEVKRQDIESNLQYDAGDKGIYRHYMQKEIYEQPNAIKNTLTGRISHGQVDLSELGPNADELLSKVEHIQILACGTSYNSGMVSRYWFESLAGIPCDVEIASEFRYRKSAVRRNSLMITLSQSGETADTLAGLRLSKELGYLGSLAICNVPGSSLVRESDLALMTNAGTEIGVASTKAFTTQLTVLLMLVAKLSRLKGLDASIEHDIVHGLQALPSRIEQMLSQDKRIEALAEDFSDKHHALFLGRGDQYPIALEGALKLKEISYIHAEAYAAGELKHGPLALIDADMPVIVVAPNNELLEKLKSNIEEVRARGGQLYVFADQDAGFVSSDNMHIIEMPHVEEVIAPIFYTVPLQLLAYHVALIKGTDVDQPRNLAKSVTVE
thermal stability at 50 C [15]: little significant difference in thermal stability

B5: Wild type Bacillus GlmS: wild-type Bacillus subtilis glucosamine-6-phosphate synthase (SEQ ID NO:16), expressed in E. coli strain 7107-24 (protein, listed as Bacillus subtilis)
chain: MCGIVGYIGQLDAKEILLKGLEKLEYRGYDSAGIAVANEQGIHVFKEKGRIADLREVVDANVEAKAGIGHTRWATHGEPSYLNAHPHQSALGRFTLVHNGVIENYVQLKQEYLQDVELKSDTDTEVVVQVIEQFVNGGLETEEAFRKTLTLLKGSYAIALFDNDNRETIFVAKNKSPLLVGLGDTFNVVASDAMAMLQVTNEYVELMDKEMVIVTDDQVVIKNLDGDVITRASYIAELDASDIEKGTYPHYMLKETDEQPVVMRKIIQTYQDENGKLSVPGDIAAAVAEADRIYIIGCGTSYHAGLVGKQYIEMWANVPVEVHVASEFSYNMPLLSKKPLFIFLSQSGETADSRAVLVQVKALGHKALTITNVPGSTLSREADYTLLLHAGPEIAVASTKAYTAQIAVLAVLASVAADKNGINIGFDLVKELGIAANAMEALCDQKDEMEMIAREYLTVSRNAFFIGRGLDYFVCVEGALKLKEISYIQAEGFAGGELKHGTIALIEQGTPVFALATQEHVNLSIRGNVKEVAARGANTCIISLKGLDDADDRFVLPEVNPALAPLVSVVPLQLIAYYAALHRGCDVDKPRNLAKSVTVE
sensitivity to GlcN-6-P inhibition / product resistance (in words) [16]: product resistance very comparable to the E. coli mutant GlmS enzymes
Km (fructose-6-P) [17]: very similar to the mutant E. coli enzyme GlmS*54
